Data published in US20240294541A1, “COMPOUNDS CONSTITUTING C20-MODIFIED SALINOMYCIN DERIVATIVES, A METHOD FOR OBTAINING THE SAME, A COMPOSITION CONTAINING THE SAME AND A USE OF SAID COMPOUNDS” (FILECLO SPOLKA Z OGRANICZONA ODPOWIEDZIALNOSCIA, priority 2021, published 2024).
pIC50: −log10 of the molar value.

Legend:
Assay type in all cases: cell-based
[1] = tested on: PLC/PRF/5 (human liver cancer); assay: cells; conditions: for pIC50: Homo sapiens, PLC-PRF-5, 72 h with compound, SRB, n/a = non-active compound, read-out: PLC/PRF/5 IC50; for PLC/PRF/5 SI: selectivity coefficient vs normal BALB/3T3 cells
Hs294T (human melanoma) = assay: cells; conditions: for pIC50: Homo sapiens, Hs 294T, 72 h with compound, SRB, n/a = non-active compound, read-out: Hs294T IC50; for Hs294T SI: selectivity coefficient vs normal BALB/3T3 cells
[2] = tested on: A2780Cis (cisplatin-resistant human ovarian cancer); assay: In vitro cytotoxicity, SRB assay, A2780Cis; conditions: for IC50: Homo sapiens, A2780cis, 72 h, read-out: A2780Cis IC50 (nM)
[3] = tested on: NCI-H23 (human lung cancer); assay: In vitro cytotoxicity, SRB assay, NCI-H23; conditions: for pIC50: Homo sapiens, NCI-H23, 72 h with compound, SRB, n/a = non-active compound, read-out: NCI-H23 IC50; for NCI-H23 SI: selectivity coefficient vs normal BALB/3T3 cells
[4] = tested on: MIA PaCa-2 (human pancreatic cancer); assay: cells; conditions: for pIC50: Homo sapiens, MIA PaCa-2, 72 h with compound, SRB, n/a = non-active compound, read-out: MIA PaCa-2 IC50; for MIA PaCa-2 SI: selectivity coefficient vs normal BALB/3T3 cells
[5] = tested on: SNU-16 (human gastric cancer); assay: cells; conditions: for pIC50: Homo sapiens, SNU-16, 72 h with compound, MTT, n/a = non-active compound, read-out: SNU-16 IC50; for SNU-16 SI: selectivity coefficient vs normal BALB/3T3 cells
A375 (human melanoma) = assay: In vitro cytotoxicity, SRB assay, A375; conditions: for pIC50: Homo sapiens, A-375, 72 h with compound, SRB, n/a = non-active compound, read-out: A375 IC50; for A375 SI: selectivity coefficient vs normal BALB/3T3 cells
[6] = tested on: A2780 (human ovarian cancer); assay: In vitro cytotoxicity, SRB assay, A2780; conditions: for pIC50: Homo sapiens, A2780, 72 h with compound, SRB, n/a = non-active compound, read-out: A2780 IC50; for A2780 SI: selectivity coefficient vs normal BALB/3T3 cells
[7] = tested on: BALB/3T3 (normal mouse fibroblasts); assay: In vitro cytotoxicity, SRB assay, normal BALB/3T3 fibroblasts; conditions: Mus musculus, BALB/3T3; normal cells; 72 h with compound, SRB; n/a = non-active compound; read-out: BALB/3T3 IC50
[8] = tested on: KG-1 (human acute myeloid leukaemia); assay: In vitro cytotoxicity, MTT assay, KG-1; conditions: for pIC50: Homo sapiens, 72 h with compound, MTT, n/a = non-active compound; for KG-1 SI: selectivity coefficient vs normal BALB/3T3 cells
[9] = tested on: PFSK-1 (malignant primitive neuroectodermal tumour); assay: In vitro cytotoxicity, SRB assay, PFSK-1; conditions: for pIC50: Homo sapiens, PFSK-1, 72 h with compound, SRB, n/a = non-active compound, read-out: PFSK-1 IC50; for PFSK-1 SI: selectivity coefficient vs normal BALB/3T3 cells

Row | Compound | pIC50 [1] | PLC/PRF/5 SI [1] | pIC50 (Hs294T (human melanoma)) | Hs294T SI (Hs294T (human melanoma)) | A2780Cis RI [2] | A2780Cis SI [2] | IC50 [2] | pIC50 [3] | NCI-H23 SI [3] | pIC50 [4] | MIA PaCa-2 SI [4] | pIC50 [5] | SNU-16 SI [5] | pIC50 (A375 (human melanoma)) | A375 SI (A375 (human melanoma)) | pIC50 [6] | A2780 SI [6] | pIC50 [7] | pIC50 [8] | KG-1 SI [8] | further results
1 | CC[C@@H](C(=O)[C@@H](C)[C@@H](O)[C@H](C)[C@@H]1O[C@@H]([C@@H](CC)C(=O)O)CC[C@@H]1C)[C@H]1O[C@]2(C=C[C@@H](NC(=S)NCC(C)C)[C@]3(CC[C@@](C)([C@H]4CC[C@](O)(CC)[C@H](C)O4)O3)O2)[C@H](C)C[C@@H]1C [FLC-00369-1] | 7.91 | 6.6 | 6.98 | 0.8 | 0.4 | 44.8 | 1.84 nM | 8.22 | 13.8 | 7.35 | 1.8 | 7.80 | 5.1 | 7.30 | 1.7 | 8.29 | 16.2 | 7.08 | 7.93 | 7.1 | pIC50 [9]: 8.23; PFSK-1 SI [9]: 14.1
2 | CC[C@@H](C(=O)[C@@H](C)[C@@H](O)[C@H](C)[C@@H]1O[C@@H]([C@@H](CC)C(=O)O)CC[C@@H]1C)[C@H]1O[C@]2(C=C[C@@H](NC(=O)NCc3ccc(F)cc3)[C@]3(CC[C@@](C)([C@H]4CC[C@](O)(CC)[C@H](C)O4)O3)O2)[C@H](C)C[C@@H]1C [FLC-00383-1] | 8.47 | 51.7 | 6.61 | 0.7 | 0.7 | 39.0 | 4.45 nM | 7.61 | 7.0 | 7.32 | 3.6 | 7.69 | 8.6 | 6.69 | 0.8 | 8.20 | 27.2 | 6.76 | 7.51 | 5.7 | pIC50 [9]: 7.59; PFSK-1 SI [9]: 6.7
3 | CC[C@@H](C(=O)[C@@H](C)[C@@H](O)[C@H](C)[C@@H]1O[C@@H]([C@@H](CC)C(=O)O)CC[C@@H]1C)[C@H]1O[C@]2(C=C[C@@H](NC(=O)Nc3ccc(OC)cc3)[C@]3(CC[C@@](C)([C@H]4CC[C@](O)(CC)[C@H](C)O4)O3)O2)[C@H](C)C[C@@H]1C [FLC-00371-1] | 7.89 | 7.2 | 7.17 | 1.4 | 0.1 | 413.4 | 0.22 nM | 8.34 | 20.4 | 7.50 | 3.0 | 7.83 | 6.2 | 7.36 | 2.1 | 8.63 | 39.3 | 7.03 | 7.66 | 4.2 | pIC50 [9]: 8.29; PFSK-1 SI [9]: 18.0
4 | CCCNC(=S)N[C@@H]1C=C[C@]2(O[C@H]([C@@H](CC)C(=O)[C@@H](C)[C@@H](O)[C@H](C)[C@@H]3O[C@@H]([C@@H](CC)C(=O)O)CC[C@@H]3C)[C@@H](C)C[C@H]2C)O[C@@]12CC[C@@](C)([C@H]1CC[C@](O)(CC)[C@H](C)O1)O2 [FLC-00349-1] | 7.62 | 2.8 | 6.97 | 0.6 | 1.0 | 14.8 | 4.56 nM | 7.12 | 0.9 | 7.18 | 1.0 | 7.68 | 3.3 | 6.95 | 0.6 | 8.35 | 15.0 | 7.17 | 7.61 | 2.7 | pIC50 [9]: 7.56; PFSK-1 SI [9]: 2.4
